Measurements published in ChEMBL document CHEMBL4311946, “Mechanistic Insight on the Mode of Action of Colletoic Acid” (J Med Chem, 2019).
Activity calls are given as the source filed them. The calls are words filed in the database; no cut-off is given here.

Columns and labels:
3T3-L1 [1] = assay: Cell cycle arrest in mouse 3T3L1 preadipocytes up to 1 mM measured after 24 hrs under non-differentiating medium by propidium iodide staining-based flow cytometry; assay type: ADME; details: 3t3-l1, 24 h
3T3-L1 [2] = assay: (§1) Anti-adipogenic activity in mouse 3T3L1 preadipocytes assessed as decrease in lipid accumulation at 50 uM incubated for 48 hrs under induction medium containing dehydrocorticosterone/cortisone followed by shifting to differentiation medium and measured after 7 days by Oil red O staining-based microscopic analysis; assay type: functional, cell-based
3T3-L1 [3] = assay: as §1, with “10” for “50”; assay type: functional, cell-based
3T3-L1 [4] = assay: Anti-adipogenic activity in mouse 3T3L1 preadipocytes assessed as decrease in lipid accumulation at 50 uM measured after 3 days under induction medium containing dehydrocorticosterone/cortisone by Oil red O staining-based microscopic analysis; assay type: functional, cell-based
Homo sapiens [5] = assay: (§2) Anti-adipogenic activity in human subcutaneous preadipocytes assessed as reduction in pre-adipocyte differentiation into matured adipocytes at 50 uM incubated for 48 hrs under induction medium containing hydrocortisone hemi-succinate prior to compound washout followed by shifting to differentiation medium containing compound supplemented with fresh medium every 48 to 72 hrs for 9 to 14 days by oil red O staining-based microscopic analysis; assay type: functional, cell-based
Homo sapiens [6] = assay: as §2, with “decrease” for “reduction”, “lipid accumulation” for “pre-adipocyte differentiation into matured adipocytes”; assay type: functional, cell-based
Homo sapiens [7] = assay: Anti-adipogenic activity in human subcutaneous preadipocytes assessed as decrease in lipid accumulation at 50 uM measured after 3 days under induction medium containing hydrocortisone hemi-succinate by oil red O staining-based microscopic analysis; assay type: functional, cell-based
3T3-L1 [8] = assay: Anti-adipogenic activity in mouse 3T3L1 preadipocytes assessed as reduction in S6K1 mRNA expression at 50 to 100 uM measured daily for 2 days under induction media containing dehydrocorticosterone/cortisone by SYBR green dye-based qRT-PCR analysis; assay type: functional, cell-based
3T3-L1 [9] = assay: Anti-adipogenic activity in differentiated mouse 3T3L1 cells assessed as reduction in PPARgamma mRNA expression at 50 to 100 uM measured after 2 to 7 days by SYBR green dye-based qRT-PCR analysis; assay type: functional, cell-based
3T3-L1 [10] = assay: Anti-adipogenic activity in differentiated mouse 3T3L1 cells assessed as reduction in PGC1alpha mRNA expression at 50 to 100 uM measured after 2 to 7 days by SYBR green dye-based qRT-PCR analysis relative to control; assay type: functional
3T3-L1 [11] = assay: Anti-adipogenic activity in differentiated mouse 3T3L1 cells assessed as reduction in 11beta-HSD1 mRNA expression at 50 to 100 uM measured after 2 to 7 days by SYBR green dye-based qRT-PCR analysis; assay type: functional, cell-based
3T3-L1 [12] = assay: Anti-adipogenic activity in differentiated mouse 3T3L1 cells assessed as reduction in ACACB mRNA expression at 50 to 100 uM measured after 2 to 7 days by SYBR green dye-based qRT-PCR analysis; assay type: functional, cell-based
3T3-L1 [13] = assay: Anti-adipogenic activity in differentiated mouse 3T3L1 cells assessed as reduction in 11beta-HSD1 expression at 50 uM measured on day 7 by Western blot analysis; assay type: functional, cell-based
[14] = target: T1, Glucocorticoid receptor (Homo sapiens) (UniProt P04150); assay: Antagonist activity at GR in human MDA-MB-231 cells at 50 uM measured after 4 hrs in presence of dexamethasone by luciferase reporter gene assay; assay type: cell-based
T1 sequence (whole entry): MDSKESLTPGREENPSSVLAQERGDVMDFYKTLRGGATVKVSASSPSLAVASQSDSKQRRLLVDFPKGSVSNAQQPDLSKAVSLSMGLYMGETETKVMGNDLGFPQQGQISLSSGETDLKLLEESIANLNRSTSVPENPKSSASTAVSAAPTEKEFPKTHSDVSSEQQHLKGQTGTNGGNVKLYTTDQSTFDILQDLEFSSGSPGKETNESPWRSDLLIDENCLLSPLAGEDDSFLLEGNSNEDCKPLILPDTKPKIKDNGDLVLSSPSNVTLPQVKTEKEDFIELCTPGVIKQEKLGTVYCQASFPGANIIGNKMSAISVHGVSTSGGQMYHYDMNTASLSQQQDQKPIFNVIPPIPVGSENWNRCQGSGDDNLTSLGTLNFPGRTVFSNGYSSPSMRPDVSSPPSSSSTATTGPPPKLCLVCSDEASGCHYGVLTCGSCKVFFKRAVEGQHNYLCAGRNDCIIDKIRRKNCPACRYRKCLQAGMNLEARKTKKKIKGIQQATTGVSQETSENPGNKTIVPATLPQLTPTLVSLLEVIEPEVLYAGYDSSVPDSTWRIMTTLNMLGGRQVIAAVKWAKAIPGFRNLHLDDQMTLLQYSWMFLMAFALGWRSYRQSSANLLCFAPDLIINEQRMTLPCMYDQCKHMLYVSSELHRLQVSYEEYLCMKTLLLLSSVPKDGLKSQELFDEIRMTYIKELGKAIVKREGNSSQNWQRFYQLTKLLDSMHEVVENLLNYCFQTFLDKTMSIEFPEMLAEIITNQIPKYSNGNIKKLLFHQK

[15] = target: T2, Peroxisome proliferator-activated receptor gamma (Homo sapiens) (UniProt P37231); assay: Antagonist activity at human PPARgamma expressed in 293H cells assessed as reduction in rosiglitazone-induced transcriptional response at 0.002 to 4 uM preincubated for 30 mins followed by rosiglitazone addition and measured after 16 hrs by reporter gene-based FRET assay; assay type: cell-based
T2 sequence (whole entry): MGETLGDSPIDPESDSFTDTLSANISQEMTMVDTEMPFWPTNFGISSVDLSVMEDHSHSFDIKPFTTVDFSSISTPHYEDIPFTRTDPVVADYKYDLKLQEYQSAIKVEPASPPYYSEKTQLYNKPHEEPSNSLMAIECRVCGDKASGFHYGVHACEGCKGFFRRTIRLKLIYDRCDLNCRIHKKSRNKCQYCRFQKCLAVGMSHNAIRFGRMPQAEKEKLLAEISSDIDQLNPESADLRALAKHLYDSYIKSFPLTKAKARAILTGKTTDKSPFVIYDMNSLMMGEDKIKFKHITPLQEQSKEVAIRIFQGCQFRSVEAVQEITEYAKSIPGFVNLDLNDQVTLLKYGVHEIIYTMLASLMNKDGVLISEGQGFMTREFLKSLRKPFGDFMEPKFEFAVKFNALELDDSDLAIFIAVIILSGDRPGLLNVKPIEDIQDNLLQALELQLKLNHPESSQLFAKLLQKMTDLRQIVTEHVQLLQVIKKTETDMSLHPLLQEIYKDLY

[16] = Half life in mouse liver microsomes; assay type: ADME, Microsome
[17] = Half life in human liver microsomes; assay type: ADME, Microsome
[18] = Half life in human plasma; assay type: ADME, cell-free

- Activity [14]: inactive
- Activity [15]: inactive
- t1/2 [16]: 1.33 h
- t1/2 [17]: 1.18 h
- half-life [18]: > 48 h
Structure (SMILES): CC1=CC[C@@]2(C[C@@H]1O)[C@@H](C(=O)O)CC[C@H]2C(C)C
- Activity (3T3-L1 [1]): Non-Toxic
- Activity (3T3-L1 [2]): Active
- Activity (3T3-L1 [3]): Active
- Activity (3T3-L1 [4]): inactive
- Activity (Homo sapiens [5]): Active
- Activity (Homo sapiens [6]): Active
- Activity (Homo sapiens [7]): inactive
- Activity (3T3-L1 [8]): Active
- Activity (3T3-L1 [9]): Active
- fold change (FC) (3T3-L1 [10]): <10
- Activity (3T3-L1 [11]): Active
- Activity (3T3-L1 [12]): Active
- Activity (3T3-L1 [13]): Active
